According to patent US20100267561A1, “HERBICIDAL PYRIDAZINONE DERIVATIVES” (priority 2007, published 2010):

Key:
Assay type in all cases: in vivo
[1] = tested on: giant foxtail (Setaria faberi); assay: Test A pre-/postemergence plant response
Procedure, shortened: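 Seeds were planted in blended loam soil and sand, then treated preemergence by directed soil spray. At that time, emerged plants (one- to two-leaf, 2–10 cm) received postemergence applications of the same surfactant-containing formulation. Injury was assessed visually on a 0–100 scale after approximately 10 days.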

[2] = tested on: bermudagrass (Cynodon dactylon); assay: Test B pre-/postemergence plant response; conditions: for Bermudagrass plant response rating: 8 g ai/ha
From the text: (§1) Seeds of plant species selected from blackgrass (Alopecurus myosuroides), downy bromegrass (Bromus tectorum), green foxtail (Setaria viridis), Italian ryegrass (Lolium multiflorum), wheat (Triticum aestivum), wild oat (Avena fatua), catchweed bedstraw (Galium aparine), bermudagrass (Cynodon dactylon), surinam grass (Brachiaria decumbens), cocklebur (Xanthium strumarium), corn (Zea mays), large crabgrass (Digitaria sanguinalis), woolly cupgrass (Eriochloa villosa), giant foxtail (Setaria faberii), goosegrass (Eleusine indica), johnsongrass (Sorghum halepense), kochia (Kochia scoparia), lambsquarters (Chenopodium album), morningglory (Ipomoea coccinea), eastern black (E.B.) nightshade (Solanum ptycanthum), yellow nutsedge (Cyperus esculentus), pigweed (Amaranthus retroflexus), common ragweed (Ambrosia elation), Russian thistle (Salsola iberica), soybean (Glycine max), common (oilseed) sunflower (Helianthus annuus), and velvetleaf (Abutilon theophrasti) were planted and treated preemergence with test chemicals formulated in a non-phytotoxic solvent mixture which included a surfactant.
(§2) At the same time, plants selected from these crop and weed species and also winter barley (Hordeum vulgare), canarygrass (Phalaris minor), chickweed (Stellaria media) and windgrass (Apera spica-venti) were treated with postemergence applications of some of the test chemicals formulated in the same manner. Plants ranged in height from 2 to 18 cm (1- to 4-leaf stage) for postemergence treatments.
(§3) Plant species in the flooded paddy test consisted of rice (Oryza sativa), umbrella sedge (Cyperus difformis), ducksalad (Heteranthera limosa) and barnyardgrass (Echinochloa crus-galli) grown to the 2-leaf stage for testing. At time of treatment, test pots were flooded to 3 cm above the soil surface, treated by application of test compounds directly to the paddy water, and then maintained at that water depth for the duration of the test. Treated plants and controls were maintained in a greenhouse for 13 to 15 days, after which time all species were compared to controls and visually evaluated. Plant response ratings, summarized in Table B, are based on a scale of 0 to 100 where 0 is no effect and 100 is complete control. A dash (-) response means no test result.

[3] = tested on: blackgrass (Alopecurus myosuroides); assay: Test B pre-/postemergence plant response; conditions: for Blackgrass plant response rating: 8 g ai/ha
From the text: as §1, §2, §3

[4] = tested on: common (oilseed) sunflower (Helianthus annuus); assay: Test B pre-/postemergence plant response; conditions: Preemergence; for Sunflower plant response rating: scale 0 to 100
From the text: as §1, §2, §3

[5] = tested on: downy bromegrass (Bromus tectorum); assay: Test B pre-/postemergence plant response; conditions: for Bromegrass, Downy plant response rating: 8 g ai/ha
From the text: as §1, §2, §3

[6] = tested on: giant foxtail (Setaria faberii); assay: Test B pre-/postemergence plant response
From the text: as §1, §2, §3

[7] = tested on: goosegrass (Eleusine indica); assay: Test B pre-/postemergence plant response
From the text: as §1, §2, §3

[8] = tested on: johnsongrass (Sorghum halepense); assay: Test B pre-/postemergence plant response
From the text: as §1, §2, §3

[9] = tested on: pigweed (Amaranthus retroflexus); assay: Test B pre-/postemergence plant response
From the text: as §1, §2, §3

soybean (Glycine max) = assay: Test B pre-/postemergence plant response
From the text: as §1, §2, §3

[10] = tested on: velvetleaf (Abutilon theophrasti); assay: Test B pre-/postemergence plant response
From the text: as §1, §2, §3

[11] = tested on: wheat (Triticum aestivum); assay: Test B pre-/postemergence plant response
From the text: as §1, §2, §3

[12] = Postemergence, 31 g ai/ha, 0 to 100 scale (0 no effect, 100 complete control)
[13] = Postemergence, 125 g ai/ha, 0 to 100 scale, 0 no effect, 100 complete control
[14] = Preemergence, 31 g ai/ha, 0 to 100 scale, 0 is no effect, 100 is complete control
[15] = Preemergence, 125 g ai/ha, 0 to 100 scale (0 no effect, 100 complete control)
[16] = Preemergence, 16 g ai/ha, scale 0 to 100 (0 no effect, 100 complete control)
[17] = Preemergence, 31 g ai/ha, scale 0 to 100 (0 no effect, 100 complete control)
[18] = Preemergence, 62 g ai/ha, 0 to 100 scale, 0 no effect, 100 complete control
[19] = Preemergence, 8 g ai/ha, scale 0 to 100
[20] = Preemergence, 16 g ai/ha, scale 0 to 100
[21] = Postemergence, 16 g ai/ha, scale 0 to 100
[22] = Postemergence, 31 g ai/ha, scale 0 to 100
[23] = Postemergence, 62 g ai/ha, scale 0 to 100, 0 no effect, 100 complete control
[24] = 8 g ai/ha, postemergence, 0-100 scale
[25] = 16 g ai/ha, postemergence, 0-100 scale

C#CCOC(=O)Oc1cnn(C)c(=O)c1-n1nc(-c2ccc(Cl)cc2)cc1C [Compound 58]
Plant response rating, Foxtail, Giant [1, 12]: 20
Plant response rating, Foxtail, Giant [1, 13]: 90
Plant response rating, Foxtail, Giant [1, 14]: 90
Plant response rating, Foxtail, Giant [1, 15]: 100
Bermudagrass plant response rating ([2]; Preemergence, scale 0 to 100 (0 no effect, 100 complete control)): 100
Plant response rating, Bermudagrass [2, 16]: 100
Plant response rating, Bermudagrass [2, 17]: 100
Plant response rating, Bermudagrass [2, 18]: 100
Plant response rating, Blackgrass [3, 16]: 100
Plant response rating, Blackgrass [3, 17]: 100
Plant response rating, Blackgrass [3, 18]: 100
Blackgrass plant response rating ([3]; Preemergence, scale 0 to 100): 80
Plant response rating, Sunflower ([4]; 31 g ai/ha, scale 0 to 100 (0 no effect, 100 complete control)): 0
Plant response rating, Sunflower ([4]; 62 g ai/ha, 0 to 100 scale, 0 no effect, 100 complete control): 0
Sunflower plant response rating ([4]; 8 g ai/ha): 0
Sunflower plant response rating ([4]; 16 g ai/ha): 0
Plant response rating, Bromegrass, Downy [5, 17]: 65
Plant response rating, Bromegrass, Downy [5, 18]: 85
Bromegrass, Downy plant response rating ([5]; Preemergence, scale 0 to 100): 0
Plant response rating, Foxtail, Giant [6, 17]: 100
Plant response rating, Foxtail, Giant [6, 18]: 100
Foxtail, Giant plant response rating [6, 19]: 55
Foxtail, Giant plant response rating [6, 20]: 95
Plant response rating, Goosegrass [7, 17]: 95
Plant response rating, Goosegrass [7, 18]: 100
Goosegrass plant response rating [7, 19]: 70
Goosegrass plant response rating [7, 20]: 85
Plant response rating, Johnsongrass [8, 17]: 40
Plant response rating, Johnsongrass [8, 18]: 60
Johnsongrass plant response rating [8, 19]: 0
Johnsongrass plant response rating [8, 20]: 0
Plant response rating, Pigweed [9, 17]: 0
Plant response rating, Pigweed [9, 18]: 0
Pigweed plant response rating [9, 19]: 0
Pigweed plant response rating [9, 20]: 0
Plant response rating, Soybean (soybean (Glycine max); [17]): 0
Plant response rating, Soybean (soybean (Glycine max); [18]): 0
Soybean plant response rating (soybean (Glycine max); [19]): 0
Soybean plant response rating (soybean (Glycine max); [20]): 0
Plant response rating, Velvetleaf [10, 17]: 0
Plant response rating, Velvetleaf [10, 18]: 0
Velvetleaf plant response rating [10, 19]: 0
Velvetleaf plant response rating [10, 20]: 0
Plant response rating, Wheat [11, 17]: 40
Plant response rating, Wheat [11, 18]: 80
Wheat plant response rating [11, 20]: 0

COCc1cc(-c2ccc(Br)cc2)nn1-c1c(O)cnn(C)c1=O [Compound 68]
Plant response rating, Foxtail, Giant [1, 12]: 50
Plant response rating, Foxtail, Giant [1, 13]: 90
Plant response rating, Foxtail, Giant [1, 14]: 10
Plant response rating, Foxtail, Giant [1, 15]: 100
Bermudagrass plant response rating ([2]; postemergence, 0-100 scale): 0
Plant response rating, Bermudagrass [2, 21]: 0
Plant response rating, Bermudagrass [2, 22]: 0
Plant response rating, Bermudagrass [2, 23]: 0
Blackgrass plant response rating ([3]; postemergence, 0-100 scale): 0
Plant response rating, Blackgrass [3, 21]: 0
Plant response rating, Blackgrass [3, 22]: 50
Plant response rating, Blackgrass [3, 23]: 85
Bromegrass, Downy plant response rating ([5]; postemergence, 0-100 scale): 0
Plant response rating, Bromegrass, Downy [5, 21]: 0
Plant response rating, Bromegrass, Downy [5, 22]: 0
Plant response rating, Bromegrass, Downy [5, 23]: 0
Foxtail, Giant plant response rating [6, 24]: 10
Plant response rating, Foxtail, Giant [6, 21]: 60
Plant response rating, Foxtail, Giant [6, 22]: 65
Plant response rating, Foxtail, Giant [6, 23]: 90
Goosegrass plant response rating [7, 24]: 0
Goosegrass plant response rating [7, 25]: 0
Plant response rating, Goosegrass [7, 22]: 0
Plant response rating, Goosegrass [7, 23]: 5
Johnsongrass plant response rating [8, 24]: 0
Johnsongrass plant response rating [8, 25]: 0
Plant response rating, Johnsongrass [8, 22]: 0
Plant response rating, Johnsongrass [8, 23]: 30
Pigweed plant response rating [9, 24]: 0
Pigweed plant response rating [9, 25]: 0
Plant response rating, Pigweed [9, 22]: 0
Plant response rating, Pigweed [9, 23]: 0
Soybean plant response rating (soybean (Glycine max); [24]): 0
Soybean plant response rating (soybean (Glycine max); [25]): 0
Plant response rating, Soybean (soybean (Glycine max); [22]): 0
Plant response rating, Soybean (soybean (Glycine max); [23]): 0
Velvetleaf plant response rating [10, 24]: 0
Velvetleaf plant response rating [10, 25]: 0
Plant response rating, Velvetleaf [10, 22]: 0
Plant response rating, Velvetleaf [10, 23]: 0
Wheat plant response rating [11, 24]: 0
Wheat plant response rating [11, 25]: 0
Plant response rating, Wheat [11, 22]: 0
Plant response rating, Wheat [11, 23]: 0
